Measured values: ChEMBL document CHEMBL1138858, “Small-molecule targeting of heat shock protein 90 chaperone function: rational identification of a new anticancer lead” (J Med Chem, 2006)
Active and inactive are the calls of the source. The calls are words filed in the database; no cut-off is given here.

Legend:
[1] = tested on: DU-145; experiment: Cytotoxicity against DU145 cells after 72 hrs; format: cell-based; conditions: Homo sapiens, DU-145, 72 h
[2] = Apoptotic activity against JR8 cells after 72 hrs; format: functional, Homo sapiens
[3] = tested on: HeLa; experiment: Apoptotic activity against HeLa cells after 72 hrs; format: functional, Homo sapiens
[4] = Cytotoxicity against JR8 cells after 72 hrs; format: cell-based; conditions: Homo sapiens, JR8, 72 h
[5] = tested on: DU-145; experiment: Apoptotic activity against DU145 cells after 72 hrs; format: functional, Homo sapiens
[6] = tested on: HeLa; experiment: Cytotoxicity against HeLa cells after 72 hrs; format: cell-based; conditions: Homo sapiens
[7] = biological target: T1, Caspase-3 (Homo sapiens) (UniProt P42574); experiment: Activation of caspase 3 in DU145 cells assessed as hydrolysis of DEVD-pNA […] substrate; format: cell-based; conditions: DU-145
T1 sequence (whole entry): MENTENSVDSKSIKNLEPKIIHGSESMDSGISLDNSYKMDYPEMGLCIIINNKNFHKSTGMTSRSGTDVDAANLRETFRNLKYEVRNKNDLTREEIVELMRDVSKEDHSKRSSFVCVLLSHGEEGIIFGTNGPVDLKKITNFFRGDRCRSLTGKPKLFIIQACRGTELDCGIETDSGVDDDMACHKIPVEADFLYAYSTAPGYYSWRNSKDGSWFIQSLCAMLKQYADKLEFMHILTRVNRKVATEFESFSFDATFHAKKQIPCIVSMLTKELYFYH

[8] = biological target: T1, Caspase-3 (Homo sapiens); experiment: Activation of caspase 3 in HeLa cells assessed as hydrolysis of DEVD-pNA […] substrate; format: cell-based
[9] = biological target: T2, Caspase-9 (Homo sapiens) (UniProt P55211); experiment: Activation of caspase 9 in DU145 cells assessed as hydrolysis of LEHD-pNA […] substrate; format: cell-based; conditions: DU-145
T2 sequence (whole entry): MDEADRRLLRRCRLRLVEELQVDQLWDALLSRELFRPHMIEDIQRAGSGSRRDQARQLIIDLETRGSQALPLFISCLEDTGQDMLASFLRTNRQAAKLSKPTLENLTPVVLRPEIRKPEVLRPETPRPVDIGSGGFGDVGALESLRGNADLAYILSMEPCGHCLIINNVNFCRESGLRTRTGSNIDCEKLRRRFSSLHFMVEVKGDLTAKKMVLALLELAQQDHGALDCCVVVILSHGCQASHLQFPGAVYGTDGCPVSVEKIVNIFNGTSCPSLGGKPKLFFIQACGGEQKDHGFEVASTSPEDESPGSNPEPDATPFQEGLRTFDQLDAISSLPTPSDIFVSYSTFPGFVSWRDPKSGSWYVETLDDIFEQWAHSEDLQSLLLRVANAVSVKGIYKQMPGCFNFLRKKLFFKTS

[10] = biological target: T3, Heat shock protein HSP90 (Homo sapiens) (UniProt P07900+P08238); experiment: Activity at Hsp90 in DU145 cells assessed as reduction in telomerase activity by TRAP assay relative to control; format: cell-based; design: scale not given: the % may be the effect or the level left; conditions: DU-145
[11] = Cytotoxicity against human WI38 cells after 72 hrs; format: cell-based; conditions: wi-38, 72 h
[12] = Induction of apoptosis in JR8 cells after 72 hrs at 125 uM; format: functional, Homo sapiens
[13] = tested on: HeLa; experiment: Induction of apoptosis in HeLa cells after 72 hrs at 125 uM; format: functional, Homo sapiens
[14] = biological target: T2, Caspase-9 (Homo sapiens); experiment: Activation of caspase 9 in HeLa cells assessed as hydrolysis of LEHD-pNA […] substrate; format: cell-based
[15] = biological target: T3, Heat shock protein HSP90 (Homo sapiens); experiment: Activity at Hsp90 in HeLa cells assessed as reduction in telomerase activity by TRAP assay relative to control; format: cell-based; design: scale not given: the % may be the effect or the level left
[16] = tested on: DU-145; experiment: Induction of apoptosis in DU145 cells after 72 hrs at 62.5 uM; format: functional, Homo sapiens

SMILES | IC50 [1] [µM] | Activity [2] [%] | Activity [3] [%] | IC50 [4] [µM] | Activity [5] [%] | IC50 [6] [µM] | Activity [7] | Activity [8] | Activity [9] | Activity [10] [%] | Activity [11] | Activity [12] [%] | Activity [13] [%] | Activity [14] | Activity [15] [%] | Activity [16] [%]
C=CCNC1=C2C[C@@H](C)C[C@H](OC)[C@H](O)[C@@H](C)/C=C(\C)[C@H](OC(N)=O)[C@@H](OC)/C=C\C=C(/C)C(=O)NC(=CC1=O)C2=O [TANESPIMYCIN] | 68.3 | 12 | 10.8 | 53.3 | 15.9 | 108 | – | – | – | – | – | – | – | – | – | –
NC(=O)c1ncn([C@@H]2O[C@H](COP(=O)(O)O)[C@@H](O)[C@H]2O)c1N | 59 | 13 | 23 | 105 | 28 | 126 | Active | Active | Active | 70 | Not Active | 20 | 27 | Active | 70 | 34
